{"source": "patent US20250041252A1", "about": "“POWDERS FOR INHALATION AND PRODUCTION PROCESS THEREOF” (UNIVERSITA' DEGLI STUDI DI PARMA, priority 2021, published 2025)", "settings": "about 8 mg of LANE, end of test, filter wash", "from_the_text": "The apparatus is consisting of an upper part, the donor chamber, and a lower part, the receiving chamber, held together by means of a metal clamp, but separated by a glass microfiber filter, used as a diffusion membrane, and placed horizontally in contact with the dissolution medium. The receiving chamber contains a magnetic stirrer.\nThe dissolution medium used for the analysis is phosphate buffered saline (PBS), prepared weighing 8 g of NaCl, 0.2 g of KCl, 1.44 g of Na2HPO4, and 0.12 g of KH2PO4 dissolved in 1 L of distilled water, with a final pH of 7.4. During the analysis, RespiCell™ was thermostated (Lauda eco silver E4, DE) at 37±0.5° C.\nThe receiving chamber was filled with PBS and sampled at pre-established time intervals through the side arm of the cell. Before the analysis 1 mL of the dissolution medium was applied on the filter, to get it completely wet.\nTo assess the not dissolved or trapped in the filter drug amount, the not dissolved residual powder was recovered washing the filter with 5 mL of a methanol:water 75:25 v/v mixture, at the end of the experiment. The drug amount in the samples was quantified by HPLC analysis.", "data": [{"compound": "CCN(CC)CC(=O)Nc1c(C)cccc1C", "note": "[Lidocaine powder raw material, lidocaine]", "values": [{"measurement": "Lidocaine retained on and inside the filter", "value": "0.1 ± 0.0", "unit": "mg"}]}]}
